In patent US10633419B2, “Immunomodulators” (BRISTOL-MYERS SQUIBB COMPANY, priority 2014, dated 2020):
Positions of bridges follow the written chain, without caps; N, C: chain ends. Non-standard residues stand in square brackets, D forms with d. Residues, ends and D or L forms follow the SMILES beside them. ξ: configuration not given here. *: point of attachment. X31 = CCCCCCCCCCCCCCCC(=O)NCCCC[C@H](NC(=O)[C@H](CC(=O)O)CC(=O)CCOCCOCCOCCOCCOCCOCCN*)C(N)=O; PEG6 = NCCOCCOCCOCCOCCOCCOCCC(=O)O; Palmitoyl = CCCCCCCCCCCCCCCC(=O)*; Hyp = O=C(O)[C@@H]1C[C@@H](O)CN1; Myristoyl = CCCCCCCCCCCCCC(=O)*; NMeNle = CCCC[C@H](NC)C(=O)O; NMeA = CN[C@@H](C)C(=O)O; Dab = NCC[C@H](N)C(=O)O; ξC = NC(CS)C(=O)O

target: T1, PD-L1 (Homo sapiens, UniProt Q9NZQ7); experiment: PD-1/PD-L1 Homogenous Time-Resolved Fluorescence (HTRF) binding assay (PD-1-Ig/PD-L1-His); details: inhibition of PD-1-Ig binding to PD-L1-TVMV-His; value given as number; read-out: HTRF IC50
T1 construct: hPDL1(19-239)-TVMV-His; made in house; host or cells: HEK293T
From the text: The ability of the macrocyclic peptides of the present disclosure to bind to PD-L1 was investigated using a PD-1/PD-L1 Homogenous Time-Resolved Fluorescence (HTRF) binding assay.
Homogenous Time-Resolved Fluorescence (HTRF) Assays of Binding of Soluble PD-1 to Soluble PD-L1. Soluble PD-1 and soluble PD-L1 refers to proteins with carboxyl-end truncations that remove the transmembrane-spanning regions and are fused to heterologous sequences, specifically the Fc portion of the human immunoglobuling G sequence (Ig) or the hexahistidine epitope tag (His). All binding studies were performed in an HTRF assay buffer consisting of dPBS supplemented with 0.1% (w/v) bovine serum albumin and 0.05% (v/v) Tween-20. For the PD-1-Ig/PD-L1-His binding assay, inhibitors were pre-incubated with PD-L1-His (10 nM final) for 15 m in 4 μl of assay buffer, followed by addition of PD-1-Ig (20 nM final) in 1 μl of assay buffer and further incubation for 15m. PD-L1 fusion proteins from either human, cynomologous macaques, mouse, or other species were used. HTRF detection was achieved using europium crypate-labeled anti-Ig monoclonal antibody (1 nM final) and allophycocyanin (APC) labeled anti-His monoclonal antibody (20 nM final). Antibodies were diluted in HTRF detection buffer and 5 μl was dispensed on top of binding reaction. The reaction was allowed to equilibrate for 30 minutes and signal (665 nm/620 nm ratio) was obtained using an EnVision fluorometer. Additional binding assays were established between PD-1-Ig/PD-L2-His (20 and 5 nM, respectively), CD80-His/PD-L1-Ig (100 and 10 nM, respectively) and CD80-His/CTLA4-Ig (10 and 5 nM, respectively). Binding/competition studies between biotinylated Compound No. 71 and human PD-L1-His were performed as follows. Macrocyclic peptide inhibitors were pre-incubated with PD-L1-His (10 nM final) for 60 minutes in 4 μl of assay buffer followed by addition of biotinylated Compound No. 71 (0.5 nM final) in 1 μl of assay buffer. Binding was allowed to equilibrate for 30 minutes followed by addition of europium crypated labeled Streptavidin (2.5 pM final) and APC-labeled anti-His (20 nM final) in 5 μl of HTRF buffer. The reaction was allowed to equilibrate for 30m and signal (665 nm/620 nm ratio) was obtained using an EnVision fluorometer.
Recombinant Proteins. Carboxyl-truncated human PD-1 (amino acids 25-167) with a C-terminal human Ig epitope tag [hPD-1 (25-167)-3S-IG] and human PD-L1 (amino acids 18-239) with a C-terminal His epitope tag [hPD-L1(19-239)-tobacco vein mottling virus protease cleavage site (TVMV)-His] were expressed in HEK293T cells and purified sequentially by recombinant Protein A affinity chromatography and size exclusion chromatography. Human PD-L2-His (Sino Biologicals), CD80-His (Sino Biologicals), CTLA4-Ig (RnD Systems) were all obtained through commercial sources.

T1 sequence (Q9NZQ7 with tags, fused parts or gaps): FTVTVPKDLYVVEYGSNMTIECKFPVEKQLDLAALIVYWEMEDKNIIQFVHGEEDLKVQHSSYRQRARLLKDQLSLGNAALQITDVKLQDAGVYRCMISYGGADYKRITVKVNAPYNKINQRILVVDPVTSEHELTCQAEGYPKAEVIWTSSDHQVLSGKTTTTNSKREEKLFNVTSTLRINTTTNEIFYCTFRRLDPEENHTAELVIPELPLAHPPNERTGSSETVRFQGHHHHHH

IC50 [nM] | Compound
259 | CCCCCCCCCCCCCC(=O)NCCCC[C@H](NC(=O)[C@H](CC(=O)O)NC(=O)CCOCCOCCOCCOCCOCCOCCNC(=O)[C@H](CC(=O)O)NC(=O)CNC(=O)[C@@H]1CSCC(=O)N[C@@H](Cc2ccc(O)cc2)C(=O)N(C)[C@@H](C)C(=O)N[C@@H](CC(=O)O)C(=O)N2CCC[C@H]2C(=O)N[C@@H](Cc2cnc[nH]2)C(=O)N[C@@H](CC(C)C)C(=O)N2C[C@H](O)C[C@H]2C(=O)N[C@@H](Cc2c[nH]c3ccccc23)C(=O)N[C@@H](CO)C(=O)N[C@@H](Cc2c[nH]c3ccccc23)C(=O)N(C)[C@@H](CCCC)C(=O)N(C)[C@@H](CCCC)C(=O)N[C@@H](CCCNC(=N)N)C(=O)N1)C(N)=O [Example 11017] ({CH2CO}-Y[NMeA]DPHL[Hyp]WSW[NMeNle][NMeNle]RCGD[PEG6]DK(Myristoyl)-NH2; thioether N-14)

same assay, conditions: inhibition of PD-1-Ig binding to PD-L1-TVMV-His; value given as range class; read-out: HTRF IC50

Compound | IC50 [nM]
CCCCCCCCCCCCCCCC(=O)NCCCC[C@H](NC(=O)[C@H](CO)NC(=O)CNC(=O)CNC(=O)CNC(=O)CNC(=O)[C@@H]1CSCC(=O)N[C@@H](Cc2ccc(O)cc2)C(=O)N(C)[C@@H](C)C(=O)N[C@@H](CC(N)=O)C(=O)N2CCC[C@H]2C(=O)N[C@@H](CCN)C(=O)N[C@@H](CC(C)C)C(=O)N2C[C@H](O)C[C@H]2C(=O)N[C@@H](Cc2c[nH]c3ccccc23)C(=O)N[C@@H](CO)C(=O)N[C@@H](Cc2c[nH]c3ccccc23)C(=O)N(C)[C@@H](CCCC)C(=O)N(C)[C@@H](CCCC)C(=O)N[C@@H](CCCNC(=N)N)C(=O)N1)C(N)=O [Example 11022] ({CH2CO}-Y[NMeA]NP[Dab]L[Hyp]WSW[NMeNle][NMeNle]RCGGGGSK(Palmitoyl)-NH2; thioether N-14) | 100 to 1600
CCCCCCCCCCCCCCCC(=O)NCCCC[C@H](NC(=O)[C@H](CO)NC(=O)CNC(=O)[C@H](CO)NC(=O)CNC(=O)[C@@H]1CSCC(=O)N[C@@H](Cc2ccc(O)cc2)C(=O)N(C)[C@@H](C)C(=O)N[C@@H](CC(N)=O)C(=O)N2CCC[C@H]2C(=O)N[C@@H](CCN)C(=O)N[C@@H](CC(C)C)C(=O)N2C[C@H](O)C[C@H]2C(=O)N[C@@H](Cc2c[nH]c3ccccc23)C(=O)N[C@@H](CO)C(=O)N[C@@H](Cc2c[nH]c3ccccc23)C(=O)N(C)[C@@H](CCCC)C(=O)N(C)[C@@H](CCCC)C(=O)N[C@@H](CCCNC(=N)N)C(=O)N1)C(N)=O [Example 11023] ({CH2CO}-Y[NMeA]NP[Dab]L[Hyp]WSW[NMeNle][NMeNle]RCGSGSK(Palmitoyl)-NH2; thioether N-14) | 100 to 1600
CCCCCCCCCCCCCCCC(=O)NCCCC[C@H](NC(=O)[C@H](CO)NC(=O)CNC(=O)CNC(=O)CNC(=O)[C@@H]1CSCC(=O)N[C@@H](Cc2ccc(O)cc2)C(=O)N(C)[C@@H](C)C(=O)N[C@@H](CC(N)=O)C(=O)N2CCC[C@H]2C(=O)N[C@@H](CCN)C(=O)N[C@@H](CC(C)C)C(=O)N2C[C@H](O)C[C@H]2C(=O)N[C@@H](Cc2c[nH]c3ccccc23)C(=O)N[C@@H](CO)C(=O)N[C@@H](Cc2c[nH]c3ccccc23)C(=O)N(C)[C@@H](CCCC)C(=O)N(C)[C@@H](CCCC)C(=O)N[C@@H](CCCNC(=N)N)C(=O)N1)C(N)=O [Example 11024] ({CH2CO}-Y[NMeA]NP[Dab]L[Hyp]WSW[NMeNle][NMeNle]RCGGGSK(Palmitoyl)-NH2; thioether N-14) | 100 to 1600
CCCCCCCCCCCCCCCC(=O)NCCCC[C@H](NC(=O)[C@H](CC(=O)O)NC(=O)CNC(=O)CNC(=O)[C@@H]1CSCC(=O)N[C@@H](Cc2ccc(O)cc2)C(=O)N(C)[C@@H](C)C(=O)N[C@@H](CC(N)=O)C(=O)N2CCC[C@H]2C(=O)N[C@@H](CCN)C(=O)N[C@@H](CC(C)C)C(=O)N2C[C@H](O)C[C@H]2C(=O)N[C@@H](Cc2c[nH]c3ccccc23)C(=O)N[C@@H](CO)C(=O)N[C@@H](Cc2c[nH]c3ccccc23)C(=O)N(C)[C@@H](CCCC)C(=O)N(C)[C@@H](CCCC)C(=O)N[C@@H](CCCNC(=N)N)C(=O)N1)C(N)=O [Example 11026] ({CH2CO}-Y[NMeA]NP[Dab]L[Hyp]WSW[NMeNle][NMeNle]RCGGDK(Palmitoyl)-NH2; thioether N-14) | 100 to 1600

Other lines, results leading:

IC50 [nM] | Compound
10 to 99 | CCCCCCCCCCCCCC(=O)NCCCC[C@H](NC(=O)[C@H](CC(=O)O)NC(=O)CNC(=O)[C@@H]1CSCC(=O)N[C@@H](Cc2ccc(O)cc2)C(=O)N(C)[C@@H](C)C(=O)N[C@@H](CC(=O)O)C(=O)N2CCC[C@H]2C(=O)N[C@@H](Cc2cnc[nH]2)C(=O)N[C@@H](CC(C)C)C(=O)N2C[C@H](O)C[C@H]2C(=O)N[C@@H](Cc2c[nH]c3ccccc23)C(=O)N[C@@H](CO)C(=O)N[C@@H](Cc2c[nH]c3ccccc23)C(=O)N(C)[C@@H](CCCC)C(=O)N(C)[C@@H](CCCC)C(=O)N[C@@H](CCCNC(=N)N)C(=O)N1)C(N)=O [Example 11016] ({CH2CO}-Y[NMeA]DPHL[Hyp]WSW[NMeNle][NMeNle]RCGDK(Myristoyl)-NH2; thioether N-14)
10 to 99 | CCCCCCCCCCCCCCCC(=O)NCCCC[C@H](NC(=O)[C@H](CC(=O)O)CC(=O)CCOCCOCCOCCOCCOCCOCCNC(=O)[C@H](CC(=O)O)NC(=O)CNC(=O)C1CSCC(=O)N[C@@H](Cc2ccc(O)cc2)C(=O)N(C)[C@@H](C)C(=O)N[C@@H](CC(=O)O)C(=O)N2CCC[C@H]2C(=O)N[C@@H](Cc2cnc[nH]2)C(=O)N[C@@H](CC(C)C)C(=O)N2C[C@H](O)C[C@H]2C(=O)N[C@@H](Cc2c[nH]c3ccccc23)C(=O)N[C@@H](CO)C(=O)N[C@@H](Cc2c[nH]c3ccccc23)C(=O)N(C)[C@@H](CCCC)C(=O)N(C)[C@@H](CCCC)C(=O)N[C@@H](CCCNC(=N)N)C(=O)N1)C(N)=O (stereo partly shown) [Example 11018] ({CH2CO}-Y[NMeA]DPHL[Hyp]WSW[NMeNle][NMeNle]R[ξC]GD-X31; thioether N-14)
100 to 1600 | CCCCCCCCCCCCCCCC(=O)NCCCC[C@H](NC(=O)[C@@H]1CSCC(=O)N[C@@H](Cc2ccc(O)cc2)C(=O)N(C)[C@@H](C)C(=O)N[C@@H](CC(N)=O)C(=O)N2CCC[C@H]2C(=O)N[C@@H](CCN)C(=O)N[C@@H](CC(C)C)C(=O)N2C[C@H](O)C[C@H]2C(=O)N[C@@H](Cc2c[nH]c3ccccc23)C(=O)N[C@@H](CO)C(=O)N[C@@H](Cc2c[nH]c3ccccc23)C(=O)N(C)[C@@H](CCCC)C(=O)N(C)[C@@H](CCCC)C(=O)N[C@@H](CCCNC(=N)N)C(=O)N1)C(N)=O [Example 11019] ({CH2CO}-Y[NMeA]NP[Dab]L[Hyp]WSW[NMeNle][NMeNle]RCK(Palmitoyl)-NH2; thioether N-14)
100 to 1600 | CCCCCCCCCCCCCCCC(=O)NCCCC[C@H](NC(=O)CNC(=O)[C@@H]1CSCC(=O)N[C@@H](Cc2ccc(O)cc2)C(=O)N(C)[C@@H](C)C(=O)N[C@@H](CC(N)=O)C(=O)N2CCC[C@H]2C(=O)N[C@@H](CCN)C(=O)N[C@@H](CC(C)C)C(=O)N2C[C@H](O)C[C@H]2C(=O)N[C@@H](Cc2c[nH]c3ccccc23)C(=O)N[C@@H](CO)C(=O)N[C@@H](Cc2c[nH]c3ccccc23)C(=O)N(C)[C@@H](CCCC)C(=O)N(C)[C@@H](CCCC)C(=O)N[C@@H](CCCNC(=N)N)C(=O)N1)C(N)=O [Example 11020] ({CH2CO}-Y[NMeA]NP[Dab]L[Hyp]WSW[NMeNle][NMeNle]RCGK(Palmitoyl)-NH2; thioether N-14)
100 to 1600 | CCCCCCCCCCCCCCCC(=O)NCCCC[C@H](NC(=O)CNC(=O)[C@H](CO)NC(=O)CNC(=O)[C@H](CO)NC(=O)CNC(=O)[C@@H]1CSCC(=O)N[C@@H](Cc2ccc(O)cc2)C(=O)N(C)[C@@H](C)C(=O)N[C@@H](CC(N)=O)C(=O)N2CCC[C@H]2C(=O)N[C@@H](CCN)C(=O)N[C@@H](CC(C)C)C(=O)N2C[C@H](O)C[C@H]2C(=O)N[C@@H](Cc2c[nH]c3ccccc23)C(=O)N[C@@H](CO)C(=O)N[C@@H](Cc2c[nH]c3ccccc23)C(=O)N(C)[C@@H](CCCC)C(=O)N(C)[C@@H](CCCC)C(=O)N[C@@H](CCCNC(=N)N)C(=O)N1)C(N)=O [Example 11021] ({CH2CO}-Y[NMeA]NP[Dab]L[Hyp]WSW[NMeNle][NMeNle]RCGSGSGK(Palmitoyl)-NH2; thioether N-14)
